# Laboratory results: patent US20060079566A1, “PDK-1/Akt signaling inhibitors” (priority 2003, published 2006)
# Tests used:
# IGROV1 = test: NCI DTP screen (SRB), Ovarian Cancer; type: cell-based; settings: Homo sapiens
# Experimental: (§1) Screening of compounds 70 and 71 against several cancer cell lines The human tumor cell lines of the cancer screening panel are grown in RPMI 1640 medium containing 5% fetal bovine serum and 2 mM L-glutamine. For a typical screening experiment, cells are inoculated into 96 well microtiter plates in 100 μL at plating densities ranging from 5,000 to 40,000 cells/well depending on the doubling time of individual cell lines. After cell inoculation, the microtiter plates are incubated at 37° C., 5% CO2, 95% air and 100% relative humidity for 24 h prior to addition of experimental drugs.
# (§2) After 24 h, two plates of each cell line are fixed in situ with TCA, to represent a measurement of the cell population for each cell line at the time of drug addition (Tz). Experimental drugs are solubilized in dimethyl sulfoxide at 400-fold the desired final maximum test concentration and stored frozen prior to use. At the time of drug addition, an aliquot of frozen concentrate is thawed and diluted to twice the desired final maximum test concentration with complete medium containing 50 μg/ml gentamicin. Additional four, 10-fold or ½ log serial dilutions are made to provide a total of five drug concentrations plus control. Aliquots of 100 μl of these different drug dilutions are added to the appropriate microtiter wells already containing 100 μl of medium, resulting in the required final drug concentrations.
# (§3) Following drug addition, the plates are incubated for an additional 48 h at 37° C., 5% CO2, 95% air, and 100% relative humidity. For adherent cells, the assay is terminated by the addition of cold TCA. Cells are fixed in situ by the gentle addition of 50 μl of cold 50% (w/v) TCA (final concentration, 10% TCA) and incubated for 60 minutes at 4° C. The supernatant is discarded, and the plates are washed five times with tap water and air dried. Sulforhodamine B (SRB) solution (100 μl) at 0.4% (w/v) in 1% acetic acid is added to each well, and plates are incubated for 10 minutes at room temperature. After staining, unbound dye is removed by washing five times with 1% acetic acid and the plates are air dried. Bound stain is subsequently solubilized with 10 mM trizma base, and the absorbance is read on an automated plate reader at a wavelength of 515 nm. For suspension cells, the methodology is the same except that the assay is terminated by fixing settled cells at the bottom of the wells by gently adding 50 μl of 80% TCA (final concentration, 16% TCA). Using the seven absorbance measurements [time zero, (Tz), control growth, (C), and test growth in the presence of drug at the five concentration levels (Ti)], the percentage growth is calculated at each of the drug concentrations levels. Percentage growth inhibition is calculated as: [(Ti−Tz)/(C−Tz)]×100 for concentrations for which Ti>/=Tz [(Ti−Tz)/Tz]×100 for concentrations for which Ti<Tz
# (§4) Three dose response parameters are calculated for each experimental agent. […] The drug concentration resulting in total growth inhibition (TGI) is calculated from Ti=Tz. […] Values are calculated for each of these three parameters if the level of activity is reached; however, if the effect is not reached or is exceeded, the value for that parameter is expressed as greater or less than the maximum or minimum concentration tested.
# OVCAR-8 = test: NCI DTP screen (SRB), Ovarian Cancer; type: cell-based; settings: Homo sapiens
# Experimental: as §1, §2, §3, §4
# OVCAR-4 = test: NCI DTP screen (SRB), Ovarian Cancer; type: cell-based; settings: Homo sapiens
# Experimental: as §1, §2, §3, §4
# SK-OV-3 = test: NCI DTP screen (SRB), Ovarian Cancer; type: cell-based; settings: Homo sapiens
# Experimental: as §1, §2, §3, §4
# OVCAR-3 = test: NCI DTP screen (SRB), Ovarian Cancer; type: cell-based
# Experimental: as §1, §2, §3, §4
# OVCAR-5 = test: NCI DTP screen (SRB), Ovarian Cancer; type: cell-based; settings: Homo sapiens
# Experimental: as §1, §2, §3, §4
# RPMI-8226 = test: NCI DTP screen (SRB), Leukemia; type: cell-based; settings: Homo sapiens
# Experimental: as §1, §2, §3, §4
# MOLT-4 = test: NCI DTP screen (SRB), Leukemia; type: cell-based; settings: Homo sapiens
# Experimental: as §1, §2, §3, §4
# K-562 = test: NCI DTP screen (SRB), Leukemia; type: cell-based; settings: Homo sapiens
# Experimental: as §1, §2, §3, §4
# SR = test: NCI DTP screen (SRB), Leukemia; type: cell-based
# Experimental: as §1, §2, §3, §4
# HCT-15 = test: NCI DTP screen (SRB), Colon Cancer; type: cell-based; settings: Homo sapiens
# Experimental: After 24 h, two plates of each cell line are fixed in situ with TCA, to represent a measurement of the cell population for each cell line at the time of drug addition (Tz). Experimental drugs are solubilized in dimethyl sulfoxide at 400-fold the desired final maximum test concentration and stored frozen prior to use. […]
# Following drug addition, the plates are incubated for an additional 48 h at 37° C., 5% CO2, 95% air, and 100% relative humidity. […] Bound stain is subsequently solubilized with 10 mM trizma base, and the absorbance is read on an automated plate reader at a wavelength of 515 nm. […] Using the seven absorbance measurements [time zero, (Tz), control growth, (C), and test growth in the presence of drug at the five concentration levels (Ti)], the percentage growth is calculated at each of the drug concentrations levels. Percentage growth inhibition is calculated as: [(Ti−Tz)/(C−Tz)]×100 for concentrations for which Ti>/=Tz [(Ti−Tz)/Tz]×100 for concentrations for which Ti<Tz […]
# SN12C = test: NCI DTP screen (SRB), Renal Cancer; type: cell-based; settings: Homo sapiens
# Experimental: as §1, §2, §3, §4
# CAKI-1 = test: NCI DTP screen (SRB), Renal Cancer; type: cell-based; settings: Homo sapiens
# Experimental: as §1, §2, §3, §4
# 786-0 = test: NCI DTP screen (SRB), Renal Cancer; type: cell-based; settings: Homo sapiens
# Experimental: as §1, §2, §3, §4
# TK-10 = test: NCI DTP screen (SRB), Renal Cancer; type: cell-based; settings: Homo sapiens
# Experimental: as §1, §2, §3, §4
# A498 = test: NCI DTP screen (SRB), Renal Cancer; type: cell-based; settings: Homo sapiens
# Experimental: as §1, §2, §3, §4
# ACHN = test: NCI DTP screen (SRB), Renal Cancer; type: cell-based; settings: Homo sapiens
# Experimental: as §1, §2, §3, §4
# [1] = system: sixty human tumor cell lines; test: NCI DTP sixty cell line assay, means over the panel; type: cell-based
# Experimental: as §1, §2, §3, §4
# COLO 205 = test: NCI DTP screen (SRB), Colon Cancer; type: cell-based; settings: Homo sapiens
# Experimental: as §1, §2, §3, §4
# HCT-116 = test: NCI DTP screen (SRB), Colon Cancer; type: cell-based; settings: Homo sapiens
# Experimental: as §1, §2, §3, §4
# SW-620 = test: NCI DTP screen (SRB), Colon Cancer; type: cell-based; settings: Homo sapiens
# Experimental: as §1, §2, §3, §4
# KM12 = test: NCI DTP screen (SRB), Colon Cancer; type: cell-based; settings: Homo sapiens
# Experimental: as §1, §2, §3, §4
# [2] = Preliminary animal studies, daily oral administration; settings: data not shown
compound,measurement,setting,value
"NCC(=O)Nc1ccc(-n2nc(C(F)(F)F)cc2-c2ccc3c(ccc4ccccc43)c2)cc1 [Compound 70, 2-Amino-N-{4-[5-(2-phenanthrenyl)-3-(trifluoromethyl)-1H-pyrazol-1-yl]-phenyl}-acetamide]",CC50,"IGROV1; IGROV-1, read-out: LC50",> 100000 nM
same,GI50,"IGROV1; IGROV-1, IGROV1",1560 nM
same,GI50,OVCAR-8; OVCAR-8,1020 nM
same,CC50,"OVCAR-8; OVCAR-8, read-out: LC50",> 100000 nM
same,GI50,OVCAR-4; OVCAR-4,1780 nM
same,CC50,"OVCAR-4; OVCAR-4, read-out: LC50",6550 nM
same,GI50,SK-OV-3,1370 nM
same,GI50,OVCAR-3; Homo sapiens,1510 nM
same,Mean Optical Densities,OVCAR-3; Log10 Concentration −8.0,1.879
same,GI50,OVCAR-5; OVCAR-5,1710 nM
same,CC50,"OVCAR-5; OVCAR-5, read-out: LC50",6450 nM
same,GI50,RPMI-8226,537 nM
same,GI50,MOLT-4; MOLT-4,636 nM
same,CC50,"MOLT-4; MOLT-4, read-out: LC50",> 100000 nM
same,CC50,"K-562; K562, read-out: LC50",> 100000 nM
same,GI50,"K-562; K562, K-562",257 nM
same,GI50,SR; Homo sapiens,711 nM
same,CC50,"SR; Homo sapiens, read-out: LC50",> 100000 nM
same,Mean Optical Densities,SR; Log10 Concentration −8.0,0.816
same,GI50,HCT-15; HCT-15,365 nM
same,CC50,"HCT-15; HCT-15, read-out: LC50",> 100000 nM
same,GI50,SN12C,1580 nM
same,GI50,CAKI-1,703 nM
same,GI50,786-0; 786-0,1200 nM
same,CC50,"786-0; 786-0, read-out: LC50",6790 nM
same,GI50,TK-10; TK-10,1480 nM
same,CC50,"TK-10; TK-10, read-out: LC50",6470 nM
same,GI50,A498; A498,2300 nM
same,CC50,"A498; A498, read-out: LC50",66900 nM
same,GI50,ACHN,1420 nM
same,range in which cell growth is completely suppressed in a diverse range of tumor cell lines,[1],3 to 5 µM
same,CC50,"[1]; Homo sapiens, 48 h, read-out: mean LC50 among the sixty cell lines",24000 nM
same,GI50,"[1]; Homo sapiens, 48 h, two-day treatment, serum-containing medium, read-out: mean GI50 among the sixty cell lines",1100 nM
same,concentration at which many cell lines respond to the growth inhibitory effect,"[1]; two-day exposure, 5% FBS-containing medium",≥ 0.1 µM
same,GI50,COLO 205,1190 nM
same,GI50,HCT-116; HCT-116,1270 nM
same,CC50,"HCT-116; HCT-116, read-out: LC50",> 100000 nM
same,GI50,SW-620; SW-620,1120 nM
same,CC50,"SW-620; SW-620, read-out: LC50",> 100000 nM
same,GI50,KM12; KM12,1070 nM
same,CC50,"KM12; KM12, read-out: LC50",6620 nM
same,toxicity to the animals,[2]; daily oral administration for one month,little toxicity
same,oral absorption,[2]; preliminary animal studies,can be orally absorbed
